Patent US20240294489A1 (Captor Therapeutics S.A., priority 2020, published 2024)

What was measured:
Type in all cases: cell-based
[1] = biological target: T1, SALL4 (Homo sapiens, UniProt Q96SW2+Q9UJQ4); assay: SALL4 degradation in the Kelly cell line, time course; settings: Kelly cells, 0.1 μM, 3, 6, 12, 24, 48 and 72 h, FIG. 2
T1 construct: SALL4 degradation in the Kelly cell line was investigated; endogenous in cells; host or cells: Kelly
Description: Kelly cells were maintained in RPMI-1640 medium, supplemented with penicillin/streptomycin and 10% Fetal Bovine Serum (FBS). Cells were seeded on 6- or 12-well plates, and the compounds to be tested were added at the desired concentration range. Final DMSO concentration was 0.25%. After incubation (37° C., 5% CO2) for a specified period of time, cells were harvested, washed and cell lysates were prepared using RIPA lysis buffer. The amount of protein was determined via BCA assay, and the appropriate quantity was then loaded on the precast gel for the protein separation. After primary and secondary Ab staining, the membranes were washed and signals developed. The densitometry analysis was implemented to obtain the numeric values used later in the protein level evaluation process.

[2] = biological target: T2, Aiolos (IKZF3) (Homo sapiens, UniProt Q96SW2+Q9UKT9); assay: Aiolos degradation assay, H929 cell line; settings: H929 cells, 20 μM, 24 h
T2 construct: Aiolos degradation in the H929 cell line was investigated; endogenous in cells; host or cells: H929
T2 sequence (Q9UKT9 whole entry): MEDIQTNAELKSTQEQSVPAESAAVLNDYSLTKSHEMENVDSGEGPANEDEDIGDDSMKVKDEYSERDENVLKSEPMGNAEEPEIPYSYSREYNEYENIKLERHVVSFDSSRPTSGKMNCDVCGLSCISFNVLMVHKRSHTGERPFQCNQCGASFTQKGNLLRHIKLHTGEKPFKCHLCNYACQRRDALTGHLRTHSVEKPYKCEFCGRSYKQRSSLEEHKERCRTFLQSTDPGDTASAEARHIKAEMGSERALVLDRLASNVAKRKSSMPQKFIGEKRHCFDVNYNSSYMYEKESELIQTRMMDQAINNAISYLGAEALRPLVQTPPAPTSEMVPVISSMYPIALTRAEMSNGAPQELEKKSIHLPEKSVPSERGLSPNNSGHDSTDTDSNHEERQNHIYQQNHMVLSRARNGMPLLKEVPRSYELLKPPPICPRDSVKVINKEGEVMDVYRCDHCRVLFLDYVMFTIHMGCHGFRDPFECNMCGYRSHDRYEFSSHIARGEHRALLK
T2 sequence (Q96SW2 whole entry): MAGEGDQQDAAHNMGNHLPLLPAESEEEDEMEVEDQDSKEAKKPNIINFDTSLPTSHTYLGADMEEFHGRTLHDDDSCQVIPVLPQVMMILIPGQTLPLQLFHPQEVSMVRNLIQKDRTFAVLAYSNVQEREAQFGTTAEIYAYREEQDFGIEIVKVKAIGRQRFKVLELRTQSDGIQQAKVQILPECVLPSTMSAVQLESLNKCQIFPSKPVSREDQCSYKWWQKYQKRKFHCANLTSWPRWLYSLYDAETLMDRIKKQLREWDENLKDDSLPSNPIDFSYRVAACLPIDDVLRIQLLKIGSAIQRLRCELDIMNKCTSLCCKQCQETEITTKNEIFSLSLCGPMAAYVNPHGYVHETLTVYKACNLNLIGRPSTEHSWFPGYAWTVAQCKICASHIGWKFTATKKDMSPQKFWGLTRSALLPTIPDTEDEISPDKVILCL
T2 sequence (Q16531 whole entry partner): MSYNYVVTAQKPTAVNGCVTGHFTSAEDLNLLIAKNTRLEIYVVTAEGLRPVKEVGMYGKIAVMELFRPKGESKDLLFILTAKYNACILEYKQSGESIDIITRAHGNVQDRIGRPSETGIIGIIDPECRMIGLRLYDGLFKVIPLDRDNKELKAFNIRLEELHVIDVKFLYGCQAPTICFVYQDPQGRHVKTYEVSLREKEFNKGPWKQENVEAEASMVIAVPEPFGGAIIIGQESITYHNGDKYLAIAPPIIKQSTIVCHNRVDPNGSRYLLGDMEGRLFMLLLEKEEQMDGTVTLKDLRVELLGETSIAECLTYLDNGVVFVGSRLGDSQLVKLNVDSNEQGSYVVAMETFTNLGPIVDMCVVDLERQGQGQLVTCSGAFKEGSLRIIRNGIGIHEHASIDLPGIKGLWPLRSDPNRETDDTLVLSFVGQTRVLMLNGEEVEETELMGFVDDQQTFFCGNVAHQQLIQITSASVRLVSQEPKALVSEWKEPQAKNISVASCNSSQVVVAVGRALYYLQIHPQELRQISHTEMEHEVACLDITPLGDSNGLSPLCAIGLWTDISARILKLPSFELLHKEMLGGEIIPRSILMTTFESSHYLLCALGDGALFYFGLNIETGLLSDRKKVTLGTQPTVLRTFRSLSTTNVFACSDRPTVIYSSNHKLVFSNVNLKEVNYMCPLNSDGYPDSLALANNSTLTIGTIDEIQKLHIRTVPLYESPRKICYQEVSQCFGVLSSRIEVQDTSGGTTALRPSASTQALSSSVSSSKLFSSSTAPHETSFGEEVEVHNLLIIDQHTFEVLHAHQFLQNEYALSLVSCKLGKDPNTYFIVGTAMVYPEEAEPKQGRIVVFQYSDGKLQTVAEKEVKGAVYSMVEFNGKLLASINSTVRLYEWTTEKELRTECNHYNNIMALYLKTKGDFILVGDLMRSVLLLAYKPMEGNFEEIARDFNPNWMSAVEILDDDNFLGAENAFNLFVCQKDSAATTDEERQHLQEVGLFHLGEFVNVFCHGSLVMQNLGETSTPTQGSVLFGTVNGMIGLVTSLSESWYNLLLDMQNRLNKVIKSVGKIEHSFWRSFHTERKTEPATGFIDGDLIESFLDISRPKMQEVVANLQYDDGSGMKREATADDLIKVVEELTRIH
Description: Cells were seeded on 6- or 12-well plates, and the compounds to be tested were added at the desired concentration range. […] After 24 h incubation (37° C., 5% CO2), cells were harvested, washed and cell lysates were prepared using RIPA lysis buffer. The amount of protein was determined via BCA assay, and the appropriate quantity was then loaded on the precast gel for the protein separation. After primary and secondary Ab staining, the membranes were washed and signals developed. The densitometry analysis was implemented to obtain the numeric values used later in the protein level evaluation process.

[3] = test system: KG-1 cells; assay: Cell viability CTG assay, KG-1; settings: Homo sapiens; KG-1, 72 h, 0.001-50 μM; read-out: KG-1 Geomean absolute IC50 by molecule, 72 H
In short: (§1)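 Cells exposed to compound at 0.25% v/v DMSO for 72 h (37° C., 5% CO2). ATP quantified by CellTiter-Glo luminescence, normalized to DMSO control. Absolute IC50 (T/C=50%) by non-linear regression on duplicate means; geometric mean used for averages.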

[4] = test system: Hep3B cells; assay: Cell viability CTG assay, Hep3B; settings: Homo sapiens, 72 h, 0.001-50 μM, read-out: Hep3B Geomean absolute IC50 by molecule, 72 H
In short: as §1

[5] = test system: MOLT-3; assay: Cell viability, additional cell lines (CellTiter-Glo), MOLT-3; settings: Homo sapiens, MOLT-3, 72 h
Description: (§2) Tumor cells are grown at 37° C. in a humidified atmosphere with 5% CO2 in RPMI 1640 medium, supplemented with 10% (v/v) fetal calf serum and 50 μg/ml gentamicin for up to 20 passages, and are passaged once or twice weekly.
(§3) Cells are harvested from exponential phase cultures, counted and plated in 96 well flat-bottom microtiter plates at a cell density depending on the cell line's growth rate (4,000-20,000 cells/well depending on the cell line's growth rate, up to 60,000 for hematological cancer cell lines) in RPMI 1640 medium supplemented with 10% (v/v) fetal calf serum and 50 μg/ml gentamicin (140 μl/well). Cultures are incubated at 37° C. and 5% CO2 in a humidified atmosphere. After 24 h, 10 μl of test compounds or control medium are added and left on the cells for another 72 h. Compounds are serially diluted in DMSO, transferred in cell culture medium, and added to the assay plates by using a Tecan Freedom EVO 200 robotic platform. The DMSO concentration is kept constant at 0.3% v/v across the assay plate. Viability of cells is quantified by the CellTiter-Glo® cell viability assay (Promega G8462). After incubation of cells, 100 μl of CellTiter-Glo® One Solution Assay reagent are added to each well. Plates are shaken for 2 minutes to induce cell lysis and incubated for 20 minutes prior to reading luminescence (LU) by using the EnVision® Xcite multilabel plate reader (Perkin Elmer). […]

[6] = test system: MOLM-1; assay: Cell viability, additional cell lines (CellTiter-Glo), MOLM-1; settings: MOLM-1, 72 h
Description: as §2, §3

[7] = test system: EOL-1; assay: Cell viability, additional cell lines (CellTiter-Glo), EOL-1; settings: Homo sapiens, EOL1; EOL-1, 72 h; read-out: Absolute IC50
Description: as §2, §3

[8] = test system: Kasumi-1; assay: Cell viability, additional cell lines (CellTiter-Glo), Kasumi-1; settings: Homo sapiens; Kasumi-1, 72 h; read-out: Absolute IC50
Description: as §2, §3

[9] = test system: NOMO-1; assay: Cell viability, additional cell lines (CellTiter-Glo), NOMO-1; settings: Homo sapiens, NOMO-1, 72 h; read-out: Absolute IC50
Description: as §2, §3

[10] = test system: SU-DHL-1; assay: Cell viability, additional cell lines (CellTiter-Glo), SU-DHL-1; settings: Homo sapiens, SU-DHL-1, 72 h; read-out: Absolute IC50
Description: as §2, §3

[11] = test system: IM-9; assay: Cell viability, additional cell lines (CellTiter-Glo), IM-9; settings: Homo sapiens, IM-9, 72 h; read-out: Absolute IC50
Description: as §2, §3

[12] = test system: NCI-H929; assay: Cell viability, additional cell lines (CellTiter-Glo), NCI-H929; settings: Homo sapiens, NCI-H929, 72 h; read-out: Absolute IC50
Description: as §2, §3

[13] = 9.5 μM, read-out: Test/Control viability at 9.5 μM

T1 sequence (Q9UJQ4 whole entry): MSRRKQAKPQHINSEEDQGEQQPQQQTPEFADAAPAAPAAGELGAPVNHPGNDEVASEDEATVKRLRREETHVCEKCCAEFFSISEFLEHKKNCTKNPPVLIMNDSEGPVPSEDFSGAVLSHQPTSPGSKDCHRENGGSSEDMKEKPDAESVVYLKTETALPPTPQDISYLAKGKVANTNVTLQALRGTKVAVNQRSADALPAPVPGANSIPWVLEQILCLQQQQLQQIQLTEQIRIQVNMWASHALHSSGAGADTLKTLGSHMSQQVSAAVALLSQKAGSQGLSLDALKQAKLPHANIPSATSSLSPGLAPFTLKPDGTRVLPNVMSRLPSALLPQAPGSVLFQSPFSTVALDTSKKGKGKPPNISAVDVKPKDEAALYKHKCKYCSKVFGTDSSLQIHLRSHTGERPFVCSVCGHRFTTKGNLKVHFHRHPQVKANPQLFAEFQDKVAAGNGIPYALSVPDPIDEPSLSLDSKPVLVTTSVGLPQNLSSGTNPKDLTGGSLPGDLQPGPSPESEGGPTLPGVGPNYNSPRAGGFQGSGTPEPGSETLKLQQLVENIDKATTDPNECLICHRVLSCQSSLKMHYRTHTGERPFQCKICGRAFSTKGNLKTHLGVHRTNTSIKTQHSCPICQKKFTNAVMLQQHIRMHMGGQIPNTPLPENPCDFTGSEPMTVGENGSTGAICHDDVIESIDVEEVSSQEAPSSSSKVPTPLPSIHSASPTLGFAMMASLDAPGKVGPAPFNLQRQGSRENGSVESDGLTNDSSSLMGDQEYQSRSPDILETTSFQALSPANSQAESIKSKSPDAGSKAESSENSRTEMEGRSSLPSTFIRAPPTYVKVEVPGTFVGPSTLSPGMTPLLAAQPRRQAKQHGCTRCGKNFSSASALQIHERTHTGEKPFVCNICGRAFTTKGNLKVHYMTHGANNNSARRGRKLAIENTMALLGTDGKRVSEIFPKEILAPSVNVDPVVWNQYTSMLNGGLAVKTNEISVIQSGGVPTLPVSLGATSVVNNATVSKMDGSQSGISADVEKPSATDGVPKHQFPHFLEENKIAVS
T1 sequence (Q96SW2 whole entry): as the sequence (Q96SW2 whole entry) above
T1 sequence (Q16531 whole entry partner): as the sequence (Q16531 whole entry partner) above

For `NCc1ccc2c(c1)CN(C1CCC(=O)NC1=O)C2=O` (centres unmarked) [Compound 1, 3-(5-(aminomethyl)-1-oxoisoindolin-2-yl)piperidine-2,6-dione], the “SALL4 degradation time course” value [1] was “more rapidly and effectively than lenalidomide”, the “% of IKZF3 protein reduction” value [2] was “C (C represents 0-24% of IKZF1 protein reduction)” and the IC50 [3] was at most 100 nM. For the same compound, the IC50 [4] was at most 100 nM, the IC50 ([5]; read-out: Absolute IC50) was at least 30 µM and the viability at 9.5 µM [5, 13] was at most 60%. It also gave a viability at 9.5 µM [6, 13] of at most 30%, an IC50 ([6]; read-out: Absolute IC50) of at most 100 nM and an IC50 [7] of over 30 µM. The IC50 [8] was over 30 µM, the IC50 [9] was over 30 µM and the IC50 [10] was over 30 µM. The IC50 [11] was over 30 µM and the IC50 [12] was over 30 µM.
